Measured values reported in PMC3091528 (Glycobiology, 2011).

Key:
mouse LSECtin CRD = biological target: T1, mouse LSECtin CRD (Mus musculus, UniProt Q8BNX1); format: binding
T1 sequence (Q8BNX1 161-294): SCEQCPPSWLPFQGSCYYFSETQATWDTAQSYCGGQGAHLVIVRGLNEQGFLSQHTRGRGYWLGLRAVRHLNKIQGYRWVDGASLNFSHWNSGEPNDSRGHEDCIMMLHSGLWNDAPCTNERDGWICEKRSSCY

human LSECtin CRD = biological target: T2, human LSECtin CRD (Homo sapiens, UniProt Q6UXB4); format: binding
T2 sequence (Q6UXB4 165-293 limits assumed): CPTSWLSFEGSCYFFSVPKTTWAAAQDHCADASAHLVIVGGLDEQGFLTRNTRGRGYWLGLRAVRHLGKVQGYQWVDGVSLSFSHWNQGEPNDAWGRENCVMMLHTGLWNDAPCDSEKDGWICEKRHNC

SMILES: CC(=O)N[C@H]1[C@H](O[C@@H]2C(O)O[C@H](CO)[C@@H](O)[C@@H]2O)O[C@H](CO)[C@@H](O)[C@@H]1O (some centres unmarked) [GlcNAcβ1-2Man]
- Ki (mouse LSECtin CRD): 10.2 ± 0.8 µM
- Ki (human LSECtin CRD): 1100 ± 500 nM
